Measured values taken from patent US20070037883A1, “Therapeutic compositions” (priority 2003, published 2007).
Entries after “also recorded” stand apart in the source; their conditions may differ.

Assays:
[1] = target: T1, Nox4-containing NADPH-oxidase in mouse endothelium (Mus musculus, UniProt Q9JHI8); experiment: NADPH-driven NADPH-oxidase activity in mouse endothelium; format: cell-based; conditions: suramin ≦100 μM
T1 construct: Nox4-containing NADPH-oxidase in mouse vascular smooth muscle cells (VSMC, a) and endothelium; endogenous in cells; host or cells: mouse endothelium (preparation not described)
T1 sequence (Q9JHI8 1-578): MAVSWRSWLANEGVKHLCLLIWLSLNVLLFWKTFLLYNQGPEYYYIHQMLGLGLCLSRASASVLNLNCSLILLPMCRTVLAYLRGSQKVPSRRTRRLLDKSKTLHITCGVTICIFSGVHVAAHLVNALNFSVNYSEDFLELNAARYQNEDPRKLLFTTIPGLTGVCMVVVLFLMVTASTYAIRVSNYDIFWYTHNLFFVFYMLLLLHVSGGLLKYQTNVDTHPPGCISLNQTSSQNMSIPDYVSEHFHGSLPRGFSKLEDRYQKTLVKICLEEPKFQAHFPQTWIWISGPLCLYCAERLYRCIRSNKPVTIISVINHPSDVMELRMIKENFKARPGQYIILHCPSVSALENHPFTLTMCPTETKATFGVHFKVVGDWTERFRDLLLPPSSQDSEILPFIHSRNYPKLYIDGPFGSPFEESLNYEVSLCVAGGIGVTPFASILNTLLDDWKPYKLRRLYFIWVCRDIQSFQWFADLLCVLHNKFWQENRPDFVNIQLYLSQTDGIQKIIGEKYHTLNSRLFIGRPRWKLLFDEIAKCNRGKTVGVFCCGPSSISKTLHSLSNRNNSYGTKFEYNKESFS
T1 sequence (Q61462 1-192 partner): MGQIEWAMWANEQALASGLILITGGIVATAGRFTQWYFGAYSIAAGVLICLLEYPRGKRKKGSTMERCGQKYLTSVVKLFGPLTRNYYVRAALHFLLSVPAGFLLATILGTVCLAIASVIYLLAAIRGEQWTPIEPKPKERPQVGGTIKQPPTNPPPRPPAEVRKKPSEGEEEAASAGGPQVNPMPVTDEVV

[2] = system: rat basilar artery; experiment: Acetylcholine-induced dilator responses of the rat basilar artery in vivo after subarachnoid haemorrhage; conditions: suramin 300 mg/kg s.c. over 7 days, 2 days after SAH, FIG. 14
Experimental: Subarachnoid hemorrhage: On Day 0, rats are briefly anaesthetized (pentobarbital 50 mg/kg ip) and an osmotic minipump containing either saline or suramin is implanted subcutaneously. The dose rate of suramin is 300 mg/kg per 7 days. On Day 5, rats are again anaesthetized and 0.3 ml of blood is withdrawn from a femoral artery and injected into the cerebrospinal fluid around the ventral surface of the brain via the cisterna magna. In some control rats, saline is injected into the cerebrospinal fluid instead of arterial blood. The rat is allowed to recover for a further 2 days, and is then again anaesthetized on Day 7 for study.
Measurement of cerebral artery responses in vivo: Rats are anaesthetized with pentbarbital (50 mg/kg ip) and anaesthesia is maintained with supplemental pentobarbital (10-20 mg/kg per h iv). […] Basilar artery diameter is continuously measured using a computer-based image tracking device. The endothelium-dependent vasodilator acetylcholine is superfused over the basilar artery at a steady concentration of 1 micromolar for 3-5 minutes, and the increase in diameter is measured. The concentration of acetylcholine is then increased to 10, and then 100 micromolar in a similar manner and increases in diameter recorded. […] Responses to acetylcholine are then expressed as a percent of this maximum response. […]

## Cc1ccc(C(=O)Nc2ccc(S(=O)(=O)O)c3cc(S(=O)(=O)O)cc(S(=O)(=O)O)c23)cc1NC(=O)c1cccc(NC(=O)Nc2cccc(C(=O)Nc3cc(C(=O)Nc4ccc(S(=O)(=O)O)c5cc(S(=O)(=O)O)cc(S(=O)(=O)O)c45)ccc3C)c2)c1 [suramin]
[1]
  inhibition of 100 μM NADPH-driven activity of Nox4-containing NADPH-oxidase in endothelium: fully inhibits
[2]
  response of basilar artery diameter to acetylcholine in vivo after SAH: not impaired; also recorded: prevents any significant reduction
